Common to all, as to assay: microbe, parasite or virus in culture
Common to all, as to format: cell-based

The subject of assay [1] is SARS-CoV-2 Delta (B.1.617.2).
The subject of assay [2] is SARS-CoV-2 Beta (B.1.351).
Assay [3] relates to SARS-CoV-2 Omicron (B.1.1.529).
Where [4] appears, read: Severe acute respiratory syndrome coronavirus 2, Vero C1008, 72 h.

Where two headings read alike, the source gives them in different places.

As a reminder, the IC50 is the concentration that gives 50% inhibition. Read a low IC50 as greater potency. For “4-[5-[3-[5-(2-Bromophenoxy)pentyl]-2,6-dioxo-5-methyl-3,6-dihydropyrimidin-1(^2H)-yl]pentyloxy]benzoic acid [Compound 872]”, the figures for the IC50 in assay [1], in assay [2] and in assay [3] were over 50 µM, over 50 µM and 7.92 µM, respectively.
As to `O=C(O)c1ccc(OCCCCn2c(=O)ccn(Cc3cccc4ccccc34)c2=O)cc1` [Compound 601, 4-[4-[2,6-Dioxo-3-(naphthyl-1-methyl)-3,6-dihydropyrimidin-1(^2H)-yl]butoxy]benzoic acid], the figures for the IC50 in assay [1] (setting [4]), in assay [2] (setting [4]) and in assay [3] (setting [4]) were 32.7 µM, 32.7 µM and 27.1 µM, respectively.
As to `O=c1ccn(Cc2c3ccccc3cc3ccccc23)c(=O)n1CCCCCCOc1ccc(Br)cc1` [Compound 611, 1-(Anthracen-9-ylmethyl)-3-[6-(4-bromophenoxy)hexyl]uracil], the 50% inhibitory concentration (IC50) in assay [1] (setting [4]) was 13.3 µM; in assay [2] (setting [4]) it was over 50 µM; in assay [3] (setting [4]) it was over 50 µM.
`O=C(O)c1ccc(OCCCCCn2c(=O)ccn(CCCCCOc3ccc(F)cc3)c2=O)cc1` [Compound 870, 4-[5-[3-[5-(4-Fluorophenoxy)pentyl]-2,6-dioxo-3,6-dihydropyrimidin-1(^2H)-yl]pentyloxy]benzoic acid]: the values for the IC50 in assay [1] (setting [4]), in assay [2] (setting [4]) and in assay [3] (setting [4]) were 14.6 µM, 34.1 µM and 24.4 µM, respectively.
Taken in the same sequence, the figures for `O=C(O)c1ccc(OCCCCCn2c(=O)ccn(CCCCCOc3ccccc3Br)c2=O)cc1` [Compound 871, 4-[5-[3-[5-(2-Bromophenoxy)pentyl]-2,6-dioxo-3,6-dihydropyrimidin-1(^2H)-yl]pentyloxy]benzoic acid] were 26.6 µM, 27.3 µM and over 50 µM.
The corresponding values for `O=C(O)c1ccc(OCCCCn2c(=O)ccn(CCCOc3ccc(Br)cc3)c2=O)cc1` [Compound 873, 4-[4-[3-[3-(4-Bromophenoxy)propyl]-2,6-dioxo-3,6-dihydropyrimidin-1(^2H)-yl]butoxy]benzoic acid] are over 50 µM, 50 µM and 28.2 µM.
Taken in the same sequence, the figures for `Cc1cc(C)cc(OCCCCCn2ccc(=O)n(CCCCCOc3ccc(C(=O)O)cc3)c2=O)c1` [Compound 874, 4-[5-[3-[5-(3,5-Dimethylphenoxy)pentyl]-2,6-dioxo-3,6-dihydropyrimidin-1(^2H)-yl]pentyloxy]benzoic acid] were 30.2 µM, 29.1 µM and over 50 µM.
As for `O=C(O)c1ccc(Cn2c(=O)ccn(CCCCCOc3ccc(Br)cc3)c2=O)cc1` [Compound 875], the values for the IC50 in assay [1] (setting [4]), in assay [2] (setting [4]) and in assay [3] (setting [4]) were 30.7 µM, 33.1 µM and 22.6 µM, respectively.
Taken in the same sequence, the figures for `O=C(O)c1ccc(OCCCCCn2c(=O)ccn(Cc3c4ccccc4cc4ccccc34)c2=O)cc1` [Compound 876] were 29.3 µM, 23.8 µM and 22.4 µM.
The corresponding values for `O=C(O)c1ccc(OCCCCn2c(=O)ccn(Cc3ccc4ccccc4c3)c2=O)cc1` [Compound 1005, 4-[4-[2,6-Dioxo-3-(naphthyl-2-methyl)-3,6-dihydropyrimidin-1(^2H)-yl]butoxy]benzoic acid] are 27.8 µM, 15.5 µM and over 50 µM.
The corresponding values for `O=C(O)c1ccc(OCCCCn2c(=O)ccn(Cc3ccc(Br)c4ccccc34)c2=O)cc1` [Compound 1006, 4-[4-[3-(4-Bromonaphthyl-1-methyl)-2,6-dioxo-3,6-dihydropyrimidin-1(2H)-yl]butoxy]benzoic acid] are 27.4 µM, over 50 µM and over 50 µM.
Turning to `O=C(O)c1ccc(OCCCn2c(=O)ccn(CCCCCCCCCCCCOc3ccc(Br)cc3)c2=O)cc1` [Compound 1007, 4-[3-[3-[12-(4-Bromophenoxy)dodecyl]-2,6-dioxo-3,6-dihydropyrimidin-1(^2H)-yl]propoxy]benzoic acid], the IC50 in assay [1] (setting [4]), in assay [2] (setting [4]) and in assay [3] (setting [4]) was over 50 µM throughout.

Values taken from publication PMC9456261 (International Journal of Molecular Sciences, 2022).
